From patent publication US9073912B2, “Azetidine derivatives as antiparasitic agents” (Zoetis LLC, priority 2012, dated 2015)

Test system: Ctenocephalides felis
Assay: Flea (Ctenocephalides felis) Membrane Feed Assay-Adult
Conditions: for minimum effective concentration (MEC): assessed at 24 hours, 10-flea sample; for lethal dose 80% (LD80): adult fleas fed approx. 2 hours on treated citrated bovine blood, knockdown and/or death observed at approx. 2 and 24 hours
Experimental: Flea (Ctenocephalides felis) Membrane Feed Assay-Adult
Formula (1) compounds were dissolved in DMSO and aliquots added to citrated bovine blood in a membrane covered Petri dish pre-warmed to 37° C. Feeding tubes containing approximately 30-35 adult fleas were placed onto the Petri dishes. The fleas fed for approximately 2 hours. […] Endpoint data is recorded as a lethal dose 80% (LD^80) in μg/mL. […] Further, the results can be assessed at 24 hours based on minimum effective concentration (MEC) in μM with a 10-flea sample.

SMILES | minimum effective concentration (MEC) [µM] | lethal dose 80% (LD80) [µg/mL]
CC(C)C(=O)N1CC(F)(c2ccc(C3=NOC(c4cc(Cl)c(F)c(Cl)c4)(C(F)(F)F)O3)cc2)C1 (centres unmarked) [Example 8, 1-(3-{4-[5(3,5-dichloro-4-fluoro-phenyl)-5-trifluoromethyl-[1,4,2]dioxazol-3-yl]-phenyl}-3-fluoro-azetidin-1-yl)-2-methyl-propan-1-one] | 30 | 
CC(C)C(=O)N1CC(F)(c2ccc(C3=NCC(c4cc(Cl)cc(Cl)c4)(C(F)(F)F)C3)cc2)C1 (centres unmarked) [Example 2, 1-(3-{4-[4-(3,5-dichloro-phenyl)-4-trifluoromethyl-4,5-dihydro-3H-pyrrol-2-yl]-phenyl}-3-fluoro-azetidin-1-yl)-2-methyl-propan-1-one] | 1 | 0.3
CC(C)C(=O)N1CC(F)(c2ccc(C3=NCC(c4cc(Cl)c(Cl)c(Cl)c4)(C(F)(F)F)C3)cc2)C1 (centres unmarked) [Example 6, 5-[4-(3-fluoro-1-isobutyrylazetidin-3-yl)phenyl]-3-(3,4,5-trichloro-phenyl)-3-(trifluoromethyl)-3,4-dihydro-2H-pyrrole] |  | 3
CC(C)C(=O)N1CC(F)(c2ccc(C3=NCC(c4cc(Cl)c(F)c(Cl)c4)(C(F)(F)F)C3)cc2)C1 (centres unmarked) [Example 4, 3-(3,5-dichloro-4-fluorophenyl)-5-[4-(3-fluoro-1-isobutyrylazetidin-3-yl)phenyl]-3-(trifluoromethyl)-3,4-dihydro-2H-pyrrole] | 1 | 
CS(=O)(=O)CC(=O)N1CC(F)(c2ccc(C3=NNC(c4cc(Cl)c(F)c(Cl)c4)(C(F)(F)F)C3)cc2)C1 (centres unmarked) [Example 18, 1-(3-(4-(5-(3,5-dichloro-4-fluorophenyl)-5-(trifluoromethyl)-4,5-dihydro-1H-pyrazol-3-yl)phenyl)-3-fluoroazetidin-1-yl)-2-(methylsulfonyl)ethanone] | 30 | 
CS(=O)(=O)CC(=O)N1CC(F)(c2ccc(C3=NCC(c4cc(Cl)c(F)c(Cl)c4)(C(F)(F)F)C3)cc2)C1 (centres unmarked) [Example 3, 3-(3,5-dichloro-4-fluorophenyl)-5-(4-{3-fluoro-1-[(methylsulfonyl)-acetyl]azetidin-3-yl}phenyl)-3-(trifluoromethyl)-3,4-dihydro-2H-pyrrole] | 1 | 3
CS(=O)(=O)CC(=O)N1CC(F)(c2ccc(C3=NCC(c4cc(Cl)c(Cl)c(Cl)c4)(C(F)(F)F)C3)cc2)C1 (centres unmarked) [Example 5, 1-(3-fluoro-3-{4-[4-(3,4,5-trichloro-phenyl)-4-trifluoromethyl-4,5-dihydro-3H-pyrrol-2-yl]-phenyl}-azetidin-1-yl)-2-methanesulfonyl-ethanone] | 1 | 1
CS(=O)(=O)CC(=O)N1CC(F)(c2ccc(C3=NCC(c4cc(Cl)cc(Cl)c4)(C(F)(F)F)C3)cc2)C1 (centres unmarked) [Example 1, 1-(3-{4-[4-(3,5-dichloro-phenyl)-4-trifluoromethyl-4,5-dihydro-3H-pyrrol-2-yl]-phenyl}-3-fluoro-azetidin-1-yl)-2-methanesulfonyl-ethanone] | 3 | 
